Experimental data: patent publication US11773078B2, “Furin inhibitors” (Glaxosmithkline Intellectual Property Development Limited, priority 2018, dated 2023)

Key:
[1] = target: T1, furin (endogenous protease) in U20S cells (Homo sapiens, UniProt P09958); assay: Furin cell-based assay (image-based, Golgi-targeted GFP with BMP10 furin/PCSK cleavage site); details: 24-hour incubation, read-out: furin golgi cell pXC50 (converted);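 further: Read-out is mean GFP fluorescence of Golgi puncta per cell by high-content imaging, retained when furin inhibited, over an eleven-point 0.00017–10 µM series, four-parameter fit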
T1 construct: the endogenous protease cleaves GFP; endogenous in cells; host or cells: U2OS cells transduced with a BacMam reporter
T1 sequence (P09958 108-794): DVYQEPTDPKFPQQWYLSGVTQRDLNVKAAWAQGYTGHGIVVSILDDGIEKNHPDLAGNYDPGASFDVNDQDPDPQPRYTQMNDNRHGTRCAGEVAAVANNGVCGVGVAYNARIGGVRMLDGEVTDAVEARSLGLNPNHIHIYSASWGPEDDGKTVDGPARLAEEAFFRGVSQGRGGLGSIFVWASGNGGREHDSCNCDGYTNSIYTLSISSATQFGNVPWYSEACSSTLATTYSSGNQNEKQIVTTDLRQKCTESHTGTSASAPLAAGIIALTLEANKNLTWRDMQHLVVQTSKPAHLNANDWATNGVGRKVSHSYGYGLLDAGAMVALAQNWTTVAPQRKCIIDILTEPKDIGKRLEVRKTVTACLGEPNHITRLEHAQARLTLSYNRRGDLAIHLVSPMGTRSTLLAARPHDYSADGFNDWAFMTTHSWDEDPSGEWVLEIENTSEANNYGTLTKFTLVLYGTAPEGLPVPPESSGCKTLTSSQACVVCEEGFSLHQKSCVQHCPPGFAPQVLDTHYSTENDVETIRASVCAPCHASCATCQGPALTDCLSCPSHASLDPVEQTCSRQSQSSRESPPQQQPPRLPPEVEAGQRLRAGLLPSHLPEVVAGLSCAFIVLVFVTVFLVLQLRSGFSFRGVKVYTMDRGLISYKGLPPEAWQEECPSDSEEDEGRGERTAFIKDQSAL

[2] = target: T2, Furin (108-574-Tev-Flag-His) enzyme (Homo sapiens, UniProt P09958); assay: Furin enzyme assay; format: biochemical
T2 construct: Furin (108-574-Tev-Flag-His) enzyme was expressed and purified from CHO cells; TEV cleavage site (C); FLAG (C); His (C); made in house; host or cells: CHO cells
T2 sequence (P09958 108-574): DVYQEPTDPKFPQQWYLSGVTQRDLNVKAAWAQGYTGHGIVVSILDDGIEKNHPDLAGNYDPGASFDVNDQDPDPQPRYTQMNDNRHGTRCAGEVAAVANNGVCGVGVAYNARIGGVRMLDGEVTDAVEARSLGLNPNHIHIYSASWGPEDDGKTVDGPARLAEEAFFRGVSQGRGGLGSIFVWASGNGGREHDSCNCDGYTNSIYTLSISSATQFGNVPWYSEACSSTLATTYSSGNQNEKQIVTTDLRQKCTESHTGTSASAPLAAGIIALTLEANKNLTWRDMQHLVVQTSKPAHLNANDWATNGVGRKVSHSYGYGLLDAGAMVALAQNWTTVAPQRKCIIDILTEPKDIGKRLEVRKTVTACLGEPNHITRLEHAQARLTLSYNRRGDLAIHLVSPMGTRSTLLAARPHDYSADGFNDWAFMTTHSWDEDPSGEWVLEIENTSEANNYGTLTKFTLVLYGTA
Summary of the method: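 CHO-expressed, purified furin construct at 40 pM in 100 mM HEPES pH7.5, 1 mM CaCl2, 0.005% Triton X-100. Eleven-point 1:3 series, 0.00017–10 μM final, incubated 2 h at room temperature and read on Envision. pXC50 from four-parameter fit.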

EC50 [1] [nM] | furin enzyme pIC50 [2] | IC50 ([2]; read-out: furin enzyme pIC50 (converted)) [nM] | SMILES
25.1 | 10.2 | – | COC(=O)NCC1CCN(Cc2cc(Oc3cnc(N4CCN(C(C)CCC(=O)O)CC4)nc3)nc(-c3cc(Cl)cc(Cl)c3)c2)CC1 (stereo not shown) [Example 222, 4-(4-(5-((6-(3,5-dichlorophenyl)-4-((4-(((methoxycarbonyl)amino)methyl)piperidin-1-yl)methyl)pyridin-2-yl)oxy)pyrimidin-2-yl)piperazin-1-yl)pentanoic acid]
5.01 | 9.8 | – | COC(=O)NCC1CCN(Cc2cc(Oc3cnc(N4CCN(CCCS(C)(=O)=O)CC4)nc3)nc(-c3cc(Cl)cc(Cl)c3)c2)CC1 [Example 223, methyl ((1-((2-(3,5-dichlorophenyl)-6-((2-(4-(3-(methylsulfonyl)propyl)piperazin-1-yl)pyrimidin-5-yl)oxy)pyridin-4-yl)methyl)piperidin-4-yl)methyl)carbamate]
7.94 | 8.7 | – | CN1CCN(c2ncc(Oc3cc(CN4CC[C@@H]5[C@H](CC4)[C@H]5CC(=O)O)cc(-c4cc(Cl)cc(Cl)c4)n3)cn2)CC1 [Example 224, 2-((1R,7S,8r)-4-((2-(3,5-dichlorophenyl)-6-((2-(4-methylpiperazin-1-yl)pyrimidin-5-yl)oxy)pyridin-4-yl)methyl)-4-azabicyclo[5.1.0]octan-8-yl)acetic acid]
10 | 8.5 | – | CN1CCN(c2ncc(Oc3cc(CN4CCC(OC(C)(C)C(=O)O)CC4)cc(-c4cc(Cl)cc(Cl)c4)n3)cn2)CC1 [Example 225, 2-((1-((2-(3,5-dichlorophenyl)-6-((2-(4-methylpiperazin-1-yl)pyrimidin-5-yl)oxy)pyridin-4-yl)methyl)piperidin-4-yl)oxy)-2-methylpropanoic acid]
15.8 | – | 2.51 | CN1CCN(c2ncc(Oc3cc(CN4CCC(CC(=O)O)CC4)cc(-c4cc(Cl)cc(Cl)c4)n3)cn2)CC(O)C1 (stereo not shown) [Example 226, 2-(1-((2-(3,5-dichlorophenyl)-6-((2-(6-hydroxy-4-methyl-1,4-diazepan-1-yl)pyrimidin-5-yl)oxy)pyridin-4-yl)methyl)piperidin-4-yl)acetic acid]
39.8 | 8.7 | – | CN(C)C1CCN(c2ncc(Oc3cc(CN4CCC(CC(=O)O)CC4)cc(-c4cc(Cl)cc(Cl)c4)n3)cn2)CC1 [Example 227, 2-(1-((2-(3,5-dichlorophenyl)-6-((2-(4-(dimethylamino)piperidin-1-yl)pyrimidin-5-yl)oxy)pyridin-4-yl)methyl)piperidin-4-yl)acetic acid]
20 | 8.6 | – | O=C(O)CC1CCN(Cc2cc(Oc3cnc(N4CCN(CC5(O)CC5)CC4)nc3)nc(-c3cc(Cl)cc(Cl)c3)c2)CC1 [Example 229, 2-(1-((2-(3,5-dichlorophenyl)-6-((2-(4-((1-hydroxycyclopropyl)methyl)piperazin-1-yl)pyrimidin-5-yl)oxy)pyridin-4-yl)methyl)piperidin-4-yl)acetic acid]
10 | 8.6 | – | CCN1CCCN(c2ncc(Oc3cc(CN4CCC(CC(=O)O)CC4)cc(-c4cc(Cl)cc(Cl)c4)n3)cn2)CC1 [Example 230, 2-(1-((2-(3,5-dichlorophenyl)-6-((2-(4-ethyl-1,4-diazepan-1-yl)pyrimidin-5-yl)oxy)pyridin-4-yl)methyl)piperidin-4-yl)acetic acid]
10 | 8.5 | – | CN1C[C@@H]2C[C@H]1CN2c1ncc(Oc2cc(CN3CCC(CC(=O)O)CC3)cc(-c3cc(Cl)cc(Cl)c3)n2)cn1 [Example 231, 2-(1-((2-(3,5-dichlorophenyl)-6-((2-((1S,4S)-5-methyl-2,5-diazabicyclo[2.2.1]heptan-2-yl)pyrimidin-5-yl)oxy)pyridin-4-yl)methyl)piperidin-4-yl)acetic acid]
50.1 | 8.9 | – | CCN1C[C@@H]2C[C@H]1CN2c1ncc(Oc2cc(CN3CCC(CC(=O)O)CC3)cc(-c3cc(Cl)cc(Cl)c3)n2)cn1 [Example 232, 2-(1-((2-(3,5-dichlorophenyl)-6-((2-((1S,4S)-5-ethyl-2,5-diazabicyclo[2.2.1]heptan-2-yl)pyrimidin-5-yl)oxy)pyridin-4-yl)methyl)piperidin-4-yl)acetic acid]
100 | 8.2 | – | O=C(O)CC1CCN(Cc2cc(Oc3cnc(N4CCN(C5CC5)CC4)nc3)nc(-c3cc(Cl)cc(Cl)c3)c2)CC1 [Example 233, 2-(1-((2-((2-(4-cyclopropylpiperazin-1-yl)pyrimidin-5-yl)oxy)-6-(3,5-dichlorophenyl)pyridin-4-yl)methyl)piperidin-4-yl)acetic acid]
10 | 10.7 | – | CCN1CCN(c2ncc(Oc3cc(CN4CCC(CC(=O)O)CC4)cc(-c4cc(Cl)cc(Cl)c4)n3)cn2)CC1 [Example 234, 2-(1-((2-(3,5-Dichlorophenyl)-6-((2-(4-ethylpiperazin-1-yl)pyrimidin-5-yl)oxy)pyridin-4-yl)methyl)piperidin-4-yl)acetic acid]
15.8 | 9.2 | – | CC(C)N1CCN(c2ncc(Oc3cc(CN4CCC(CC(=O)O)CC4)cc(-c4cc(Cl)cc(Cl)c4)n3)cn2)CC1 [Example 235, 2-(1-((2-(3,5-Dichlorophenyl)-6-((2-(4-isopropylpiperazin-1-yl)pyrimidin-5-yl)oxy)pyridin-4-yl)methyl)piperidin-4-yl)acetic acid]
39.8 | 8.5 | – | O=C(O)CC1CCN(Cc2cc(Oc3cnc(N4CCN(CCF)CC4)nc3)nc(-c3cc(Cl)cc(Cl)c3)c2)CC1 [Example 236, 2-(1-((2-(3,5-Dichlorophenyl)-6-((2-(4-(2-fluoroethyl)piperazin-1-yl)pyrimidin-5-yl)oxy)pyridin-4-yl)methyl)piperidin-4-yl)acetic acid]
3.16 | 8.7 | – | CC(O)CCN1CCN(c2ncc(Oc3cc(CN4CCC(CC(=O)O)CC4)cc(-c4cc(Cl)cc(Cl)c4)n3)cn2)CC1 (stereo not shown) [Example 237, 2-(1-((2-(3,5-Dichlorophenyl)-6-((2-(4-(3-hydroxybutyl)piperazin-1-yl)pyrimidin-5-yl)oxy)pyridin-4-yl)methyl)piperidin-4-yl)acetic acid]
10 | 9.8 | – | CC(CCO)N1CCN(c2ncc(Oc3cc(CN4CCC(CC(=O)O)CC4)cc(-c4cc(Cl)cc(Cl)c4)n3)cn2)CC1 (stereo not shown) [Example 238, 2-(1-((2-(3,5-Dichlorophenyl)-6-((2-(4-(4-hydroxybutan-2-yl)piperazin-1-yl)pyrimidin-5-yl)oxy)pyridin-4-yl)methyl)piperidin-4-yl)acetic acid]
25.1 | 8 | – | CNCCC(C)N1CCN(c2ncc(Oc3cc(CN4CCC(CC(=O)O)CC4)cc(-c4cc(Cl)cc(Cl)c4)n3)cn2)CC1 (stereo not shown) [Example 239, 2-(1-((2-(3,5-Dichlorophenyl)-6-((2-(4-(4-(methylamino)butan-2-yl)piperazin-1-yl)pyrimidin-5-yl)oxy)pyridin-4-yl)methyl)piperidin-4-yl)acetic acid]
6.31 | 8.4 | – | CC(CCN(C)C)N1CCN(c2ncc(Oc3cc(CN4CCC(CC(=O)O)CC4)cc(-c4cc(Cl)cc(Cl)c4)n3)cn2)CC1 (stereo not shown) [Example 240, 2-(1-((2-(3,5-Dichlorophenyl)-6-((2-(4-(4-(dimethylamino)butan-2-yl)piperazin-1-yl)pyrimidin-5-yl)oxy)pyridin-4-yl)methyl)piperidin-4-yl)acetic acid]
63.1 | 8.6 | – | CNC(=O)OCCN1CCN(c2ncc(Oc3cc(CN4CCC(CC(=O)O)CC4)cc(-c4cc(Cl)cc(Cl)c4)n3)cn2)CC1 [Example 241, 2-(1-((2-(3,5-Dichlorophenyl)-6-((2-(4-(2-((methylcarbamoyl)oxy)ethyl)piperazin-1-yl)pyrimidin-5-yl)oxy)pyridin-4-yl)methyl)piperidin-4-yl)acetic acid]
25.1 | 8.7 | – | CS(=O)(=O)CCCN1CCN(c2ccc(Oc3cc(CN4CCC(CC(=O)O)CC4)cc(-c4cc(Cl)cc(Cl)c4)n3)cn2)CC1 [Example 243, 2-(1-((2-(3,5-dichlorophenyl)-6-((6-(4-(3-(methylsulfonyl)propyl)piperazin-1-yl)pyridin-3-yl)oxy)pyridin-4-yl)methyl)piperidin-4-yl)acetic acid]
20 | 8.3 | – | COCCN1CCN(c2ccc(Oc3cc(CN4CCC(CC(=O)O)CC4)cc(-c4cc(Cl)cc(Cl)c4)n3)cn2)CC1 [Example 244, 2-(1-((2-(3,5-dichlorophenyl)-6-((6-(4-(2-methoxyethyl)piperazin-1-yl)pyridin-3-yl)oxy)pyridin-4-yl)methyl)piperidin-4-yl)acetic acid]
3.98 | 10 | – | COCCN1CCN(c2ncc(Oc3cc(CN4CCC(CNC(C)=O)CC4)cc(-c4cc(Cl)cc(Cl)c4)n3)cn2)CC1 [Example 245, N-((1-((2-(3,5-dichlorophenyl)-6-((2-(4-(2-methoxyethyl)piperazin-1-yl)pyrimidin-5-yl)oxy)pyridin-4-yl)methyl)piperidin-4-yl)methyl)acetamide]

SMILES | EC50 [1] [nM] | furin enzyme pIC50 [2] | IC50 ([2]; read-out: furin enzyme pIC50 (converted)) [nM]
CN1C2CC1CN(c1ncc(Oc3cc(CN4CCC(CC(=O)O)CC4)cc(-c4cc(Cl)cc(Cl)c4)n3)cn1)C2 [Example 228, 2-(1-((2-(3,5-dichlorophenyl)-6-((2-(6-methyl-3,6-diazabicyclo[3.1.1]heptan-3-yl)pyrimidin-5-yl)oxy)pyridin-4-yl)methyl)piperidin-4-yl)acetic acid] | 39.8 | 8.6 | –
